Measurements reported in ChEMBL document CHEMBL1151338, “Alkaloids of Thalictrum XXX. Eleven Minor Alkaloids From Thalictrum rugosum” (1980).
The source made the active and inactive calls. The calls are words filed in the database; no cut-off is given here.

Tests used:
[1] = tested on: Salmonella enterica subsp. enterica serovar Gallinarum; assay: Antimicrobial activity against Salmonella gallinarum ATCC 9184 at 1000 ug/ml; format: functional, organism-based
Klebsiella pneumoniae [2] = assay: Antimicrobial activity against Klebsiella pneumoniae ATCC 10031; format: functional
Candida albicans [3] = assay: Antimicrobial activity against Candida albicans ATCC 10231; format: functional
[4] = tested on: Mycolicibacterium smegmatis; assay: Antimicrobial activity against Mycobacterium smegmatis ATCC 607; format: functional
Escherichia coli [5] = assay: Antimicrobial activity against Escherichia coli ATCC 9637 at 1000 ug/ml; format: functional, organism-based
Staphylococcus aureus [6] = assay: Antimicrobial activity against Staphylococcus aureus ATCC 13709a; format: functional
Candida albicans [7] = assay: Antimicrobial activity against Candida albicans ATCC 10231 at 1000 ug/ml; format: functional, organism-based
Klebsiella pneumoniae [8] = assay: Antimicrobial activity against Klebsiella pneumoniae ATCC 10031 at 1000 ug/ml; format: functional, organism-based
Escherichia coli [9] = assay: Antimicrobial activity against Escherichia coli ATCC 9637; format: functional
[10] = tested on: Salmonella enterica subsp. enterica serovar Gallinarum; assay: Antimicrobial activity against Salmonella gallinarum ATCC 9184; format: functional
[11] = tested on: Mycolicibacterium smegmatis; assay: Antimicrobial activity against Mycobacterium smegmatis ATCC 607 at 1000 ug/ml; format: functional, organism-based
Staphylococcus aureus [12] = assay: Antimicrobial activity against Staphylococcus aureus ATCC 13709a at 1000 ug/ml; format: functional, organism-based

With `CCOc1c2c3c(c(OC)c1OC)Oc1cc4c(cc1OC)CCN(C)[C@H]4Cc1ccc(OC)c(c1)Oc1ccc(cc1)C[C@@H]3N(C)CC2` [THALIGOSINE ETHYL ETHER] the Activity [1] was “inactive”, the Activity (Klebsiella pneumoniae [2]) was 1000 µg/mL and the Activity (Candida albicans [3]) was 100 µg/mL. The Activity [4] was 100 µg/mL, the Activity (Escherichia coli [5]) was “inactive” and the Activity (Staphylococcus aureus [6]) was 100 µg/mL.
In the case of `COc1ccc(C[C@H]2c3cc(OC)c(OC)c(O)c3CCN2C)cc1Oc1ccc(C[C@H]2c3cc(OC)c(OC)c(O)c3CCN2C)cc1` [THALIRUGIDINE], the Activity [1] is reported as “inactive”, the Activity (Candida albicans [7]) is reported as “inactive” and the Activity (Klebsiella pneumoniae [8]) is reported as “inactive”. For the same compound, the Activity [4] was 1000 µg/mL, the Activity (Escherichia coli [5]) was “inactive” and the Activity (Staphylococcus aureus [6]) was 1000 µg/mL.
With `COc1cc2c3c(c1O)Oc1c4c(cc(OC)c1OC)[C@H](Cc1ccc(cc1)Oc1cc(ccc1O)C[C@@H]3N(C)CC2)N(C)CC4` [THALIGOSIDINE] the Activity [1] was “inactive”, the Activity (Candida albicans [3]) was 1000 µg/mL and the Activity (Klebsiella pneumoniae [8]) was “inactive”. The Activity [4] was 100 µg/mL, the Activity (Escherichia coli [5]) was “inactive” and the Activity (Staphylococcus aureus [6]) was 1000 µg/mL.
`COc1cc2c(cc1O)[C@H](Cc1ccc(OC)c(Oc3ccc(C[C@H]4c5cc(OC)c(OC)cc5CCN4C)cc3)c1)N(C)CC2` [NEOTHALIBRINE] was tested, and the Activity [1] was “inactive”, the Activity (Candida albicans [7]) was “inactive” and the Activity (Klebsiella pneumoniae [8]) was “inactive”. For the same compound, the Activity [4] was 1000 µg/mL, the Activity (Escherichia coli [5]) was “inactive” and the Activity (Staphylococcus aureus [6]) was 1000 µg/mL.
With `CN[C@@H]1[C@H](O[C@H]2[C@H](O[C@H]3[C@H](O)[C@@H](O)[C@H](N=C(N)N)[C@@H](O)[C@@H]3N=C(N)N)O[C@@H](C)[C@]2(O)C=O)O[C@@H](CO)[C@H](O)[C@H]1O` [STREPTOMYCIN] the Activity (Candida albicans [7]) was “inactive”, the Activity (Klebsiella pneumoniae [2]) was 1.56 µg/mL and the Activity [4] was 0.78 µg/mL. The Activity (Escherichia coli [9]) was 12.5 µg/mL, the Activity [10] was 25 µg/mL and the Activity (Staphylococcus aureus [6]) was 3.1 µg/mL.
In the case of `COc1cc(CCN(C)C)c2ccc3cc4c(cc3c2c1OC)OCO4` [THALICTHUBERINEC], the Activity (Klebsiella pneumoniae [2]) is reported as 1000 µg/mL, the Activity (Candida albicans [3]) is reported as 50 µg/mL and the Activity [4] is reported as 25 µg/mL. For the same compound, the Activity (Escherichia coli [5]) was “inactive”, the Activity [10] was 1000 µg/mL and the Activity (Staphylococcus aureus [6]) was 100 µg/mL.
In the case of `COc1cc2c(cc1O)[C@H](Cc1ccc(OC)c(Oc3ccc(C[C@H]4c5cc(OC)c(OC)c(O)c5CCN4C)cc3)c1)N(C)CC2` [THALIRUGINE], the Activity [1] is reported as “inactive”, the Activity (Candida albicans [7]) is reported as “inactive” and the Activity (Klebsiella pneumoniae [8]) is reported as “inactive”. For the same compound, the Activity [4] was 1000 µg/mL, the Activity (Escherichia coli [5]) was “inactive” and the Activity (Staphylococcus aureus [6]) was 1000 µg/mL.
`COc1ccc2cc1Oc1ccc(cc1)C[C@H]1c3c(c(O)c(OC)c(OC)c3Oc3cc4c(cc3OC)CCN(C)[C@H]4C2)CCN1C` [THALIGOSINE] was tested, and the Activity [1] was “inactive”, the Activity (Candida albicans [3]) was 1000 µg/mL and the Activity [4] was 100 µg/mL. For the same compound, the Activity (Escherichia coli [5]) was “inactive” and the Activity (Staphylococcus aureus [6]) was 100 µg/mL.
In the case of `O=C1NCCc2cc3c(cc21)OCO3`, the Activity [1] is reported as “inactive”, the Activity (Candida albicans [7]) is reported as “inactive” and the Activity (Klebsiella pneumoniae [8]) is reported as “inactive”. For the same compound, the Activity [11] was “inactive”, the Activity (Escherichia coli [5]) was “inactive” and the Activity (Staphylococcus aureus [12]) was “inactive”.
In the case of `COc1cc2c3cc1Oc1c(OC)c(OC)c(OC)c4c1[C@H](Cc1ccc(cc1)Oc1cc(ccc1O)C[C@@H]3N(C)CC2)N(C)CC4` [THALIGOSININE], the Activity [1] is reported as “inactive”, the Activity (Candida albicans [7]) is reported as “inactive” and the Activity (Klebsiella pneumoniae [2]) is reported as 1000 µg/mL. For the same compound, the Activity (Klebsiella pneumoniae [8]) was “inactive”, the Activity [4] was 1000 µg/mL and the Activity (Escherichia coli [5]) was “inactive”. The Activity (Staphylococcus aureus [6]) was 1000 µg/mL.
